{"source": "patent US5876956A", "about": "“Methods for identification or purification of cells containing an enzymatic intracellular marker” (Johns Hopkins University School of Medicine, priority 1995, dated 1999)", "key": {"[1]": {"system": "Mouse CFU-S (day 8)", "experiment": "Mouse CFU-S (day 8) of bone marrow cells isolated by DAAA and flow cytometry", "assay_type": "in vivo", "procedure": "(§1) In an attempt to examine cytosolic ALDH on a single-cell basis, leukemia cell lines and bone marrow cells were incubated with the fluorescent substrate DAAA, washed, and subjected to flow cytometry. The cell lines and plastic nonadherent mononuclear marrow cells were incubated with 50 μM DAAA at 10^6 cells/ml for 30 minutes at 37° C. After washing twice, some mononuclear marrow cells were treated with fluorescent monoclonal antibodies (Becton-Dickinson, Mountain View, Calif.), as previously described ([…] et al., Blood 74:1517, 1989) to study cytosolic ALDH activity of CD34^+, CD19^+, and CD5^+ marrow cells. […] Dansyl fluorescence was excited at both 351.1 nm and 363.8 nm using a multiline ultraviolet filter, and was detected at 521 nm. Cytosolic ALDH activity was estimated by the corrected mean fluorescence intensity (MFI) ([…] et al., Blood 75:1947, 1990; […], 1989, supra] of dansyl staining, which equals the mean fluorescence of unstained cells subtracted from the mean fluorescence of cells treated with DAAA. The mean fluorescence level represents the average channel value for a given sample on the flow cytometer. To confirm that cellular dansyl fluorescence was the result of the activity of cytosolic ALDH, L1210/CPA cells were incubated with 50 μM 4-(diethylamino) benzaldehyde (DEAB) for 15 minutes at 37° C. prior to the DAAA incubations to inhibit cytosolic ALDH activity. […]"}, "[2]": {"system": "Human CFU-GM", "experiment": "Growth of human bone marrow hematopoietic progenitors after DAAA and flow cytometry", "assay_type": "cell-based", "procedure": "In an attempt to examine cytosolic ALDH on a single-cell basis, leukemia cell lines and bone marrow cells were incubated with the fluorescent substrate DAAA, washed, and subjected to flow cytometry. The cell lines and plastic nonadherent mononuclear marrow cells were incubated with 50 μM DAAA at 10^6 cells/ml for 30 minutes at 37° C. After washing twice, some mononuclear marrow cells were treated with fluorescent monoclonal antibodies (Becton-Dickinson, Mountain View, Calif.), as previously described ([…] et al., Blood 74:1517, 1989) to study cytosolic ALDH activity of CD34^+, CD19^+, and CD5^+ marrow cells. The cells were sorted on a Epics 753 Dual Laser Flow Cytometer (Coulter Electronics, Hialeah, Fla.) equipped with two 90-5 water cooled argon lasers (Coherent, Palo Alto, Calif.). Dansyl fluorescence was excited at both 351.1 nm and 363.8 nm using a multiline ultraviolet filter, and was detected at 521 nm. Cytosolic ALDH activity was estimated by the corrected mean fluorescence intensity (MFI) ([…] et al., Blood 75:1947, 1990; […], 1989, supra] of dansyl staining, which equals the mean fluorescence of unstained cells subtracted from the mean fluorescence of cells treated with DAAA. The mean fluorescence level represents the average channel value for a given sample on the flow cytometer. To confirm that cellular dansyl fluorescence was the result of the activity of cytosolic ALDH, L1210/CPA cells were incubated with 50 μM 4-(diethylamino) benzaldehyde (DEAB) for 15 minutes at 37° C. prior to the DAAA incubations to inhibit cytosolic ALDH activity. […] (J. E. Russo et al., Biochem Pharmacol 37:1639, 1988) L1210/CPA cells were also incubated with 50 μM dansyl glycine (DG) alone (Sigma, St. Louis, Mo.) at 10^6 cells/ml for 30 minutes at 37° C. […] The data in Table 1 show the results of flow cytometry sorting of human and mouse marrow cells based on their fluorescence intensity after incubation with DAAA. The assays of progenitor content is also shown. Isolation of bone marrow cells with high ALDH expression by fluorescence sorting based on DAAA was enriched for hematopoietic progenitors capable of both in vitro and in vivo growth. The 5% of human bone marrow cells with highest dansyl fluorescence produced substantially more CFU-GM than the 5% of cells with lowest dansyl fluorescence (p=0.007, T-test). Similarly, using DAAA-derived fluorescence, it was possible to obtain a composition that is enriched for CFU-GM (p=0.03) and the more primitive CFU-S (p=0.01) from mouse bone marrow."}, "[3]": {"system": "Mouse CFU-GM", "experiment": "Growth of mouse bone marrow progenitors isolated by DAAA and flow cytometry", "assay_type": "cell-based", "procedure": "as §1"}, "[4]": {"system": "cytosolic ALDH", "details": "J. E. Russo et al., Biochem Pharmacol 37:1639, 1988; cited from earlier work"}, "[5]": {"system": "cells", "details": "in vitro and in vivo; J. E. Russo et al., 1988; cited from earlier work"}, "[6]": {"system": "L1210/CPA cells", "experiment": "Flow cytometry of dansyl fluorescence in cells incubated with the compound", "assay_type": "cell-based, mouse", "details": "L1210/CPA cells incubated with 50 μM dansyl glycine alone, 10^6 cells/ml, 30 minutes, 37° C.; FIG. 1E", "procedure": "In an attempt to examine cytosolic ALDH on a single-cell basis, leukemia cell lines and bone marrow cells were incubated with the fluorescent substrate DAAA, washed, and subjected to flow cytometry. The cell lines and plastic nonadherent mononuclear marrow cells were incubated with 50 μM DAAA at 10^6 cells/ml for 30 minutes at 37° C. After washing twice, some mononuclear marrow cells were treated with fluorescent monoclonal antibodies (Becton-Dickinson, Mountain View, Calif.), as previously described (M. B. Kastan et al., Blood 74:1517, 1989) to study cytosolic ALDH activity of CD34^+, CD19^+, and CD5^+ marrow cells. The cells were sorted on a Epics 753 Dual Laser Flow Cytometer (Coulter Electronics, Hialeah, Fla.) equipped with two 90-5 water cooled argon lasers (Coherent, Palo Alto, Calif.). Dansyl fluorescence was excited at both 351.1 nm and 363.8 nm using a multiline ultraviolet filter, and was detected at 521 nm. […]"}, "[7]": {"details": "5% cells with the highest fluorescence after DAAA"}, "[8]": {"details": "5% of cells with the lowest fluorescence after DAAA"}}}
{"smiles": "CN(C)c1cccc2c(S(=O)(=O)NCC=O)cccc12", "note": "[DAAA, N-dansyl aminoacetaldehyde]", "values": [{"measurement": "Colonies/10^5 cells, Mouse CFU-S (day 8), Dansyl+", "setting": "[1]; [7]", "result": "23.5 ± 1", "unit": "Colonies/10^5 cells"}, {"measurement": "Colonies/10^5 cells, Mouse CFU-S (day 8), Dansyl-", "setting": "[1]; [8]", "result": "7 ± 1.3", "unit": "Colonies/10^5 cells"}, {"measurement": "Colonies/10^5 cells, Human CFU-GM, Dansyl+ MNMC", "setting": "[2]; [7]", "result": "216 ± 13", "unit": "Colonies/10^5 cells"}, {"measurement": "Colonies/10^5 cells, Human CFU-GM, Dansyl- MNMC", "setting": "[2]; [8]", "result": "67 ± 20", "unit": "Colonies/10^5 cells"}, {"measurement": "harm to cells / progenitor growth after DAAA treatment", "setting": "[2]; human bone marrow cells treated with DAAA and processed by flow cytometry (not sorted)", "result": "did not appear to harm cells"}, {"measurement": "Colonies/10^5 cells, Human CFU-GM, Stained MNMC", "setting": "[2]; mononuclear marrow cells incubated with DAAA and processed (but not sorted) by flow cytometry, unstained MNMC 163 ± 5", "result": "155 ± 5", "unit": "Colonies/10^5 cells"}, {"measurement": "Colonies/10^5 cells, Mouse CFU-GM, Dansyl+", "setting": "[3]; [7]", "result": "800 ± 185", "unit": "Colonies/10^5 cells"}, {"measurement": "Colonies/10^5 cells, Mouse CFU-GM, Dansyl-", "setting": "[3]; [8]", "result": "250 ± 60", "unit": "Colonies/10^5 cells"}]}
{"smiles": "CCN(CC)c1ccc(C=O)cc1", "note": "[DEAB, 4-(diethylamino) benzaldehyde]", "values": [{"measurement": "inhibition of cytosolic ALDH", "setting": "[4]", "result": "specific, competitive inhibitor of cytosolic ALDH"}, {"measurement": "toxicity to cells", "setting": "[5]", "result": "nontoxic to cells in vitro and in vivo"}]}
{"smiles": "CN(C)c1cccc2c(S(=O)(=O)NCC(=O)O)cccc12", "note": "[dansyl glycine]", "values": [{"measurement": "dansyl fluorescence of cells", "setting": "[6]", "result": "no detectable fluorescence"}]}
